The text below walks through data of US5747447A, “Stable polypeptide composition” (COR Therapeutics, priority 1995, dated 1998).

*1 amine or outer side, *2 acyl side, *3 side chain or, on linkers, in order; H or OH if unused. Where a SMILES comes first, the peptide text is derived from it. Bridges are numbered along the chain shown (N, C = ends). [ ]: non-standard residue; d: D form. The star is where a group is joined. Phe(4-NO2) = N[C@@H](Cc1ccc([N+](=O)[O-])cc1)C(=O)O; X1 = N=C(NCCCC[C@H](N[*:1])C(=O)[*:2])c1ccccc1; X2 = CC(=N)NCCCC[C@H](N[*:1])C(=O)[*:2]; NMeF = CN[C@@H](Cc1ccccc1)C(=O)O; hArg = N=C(N)NCCCC[C@H](N)C(=O)O; dPen = CC(C)(S)[C@@H](N)C(=O)O; Pen = CC(C)(S)[C@H](N)C(=O)O; Pip = O=C(O)[C@@H]1CCCCN1; Orn = NCCC[C@H](N)C(=O)O; Thz = O=C(O)[C@@H]1CSCN1; Mpa = O=C(O)CCS; Sar = CNCC(=O)O; For = O=C*

What is called IC50 is the concentration needed to halve the response being measured.

The assay deals with ADP-induced human platelet aggregation (Homo sapiens, UniProt P05106+P08514). In words: standard aggregation inhibition assay (ADP-induced human platelet aggregation). Format: cell-based. To be noted: ADP-induced human platelet aggregation; read-out: Appr, IC50. The text has this: 2. Standard assays directly applied to platelet aggregation, such as those described by Gann, Z.-R., et al., J Biol Chem (1988) 263:19827-19832; Huang, T. F., et al., J Biol Chem (1987) 262:16157-16163; Biochemistry (1989) 28:661-666, cited above and incorporated herein by reference;
Sequence of ADP-induced human platelet aggregation (P08514 32-1039): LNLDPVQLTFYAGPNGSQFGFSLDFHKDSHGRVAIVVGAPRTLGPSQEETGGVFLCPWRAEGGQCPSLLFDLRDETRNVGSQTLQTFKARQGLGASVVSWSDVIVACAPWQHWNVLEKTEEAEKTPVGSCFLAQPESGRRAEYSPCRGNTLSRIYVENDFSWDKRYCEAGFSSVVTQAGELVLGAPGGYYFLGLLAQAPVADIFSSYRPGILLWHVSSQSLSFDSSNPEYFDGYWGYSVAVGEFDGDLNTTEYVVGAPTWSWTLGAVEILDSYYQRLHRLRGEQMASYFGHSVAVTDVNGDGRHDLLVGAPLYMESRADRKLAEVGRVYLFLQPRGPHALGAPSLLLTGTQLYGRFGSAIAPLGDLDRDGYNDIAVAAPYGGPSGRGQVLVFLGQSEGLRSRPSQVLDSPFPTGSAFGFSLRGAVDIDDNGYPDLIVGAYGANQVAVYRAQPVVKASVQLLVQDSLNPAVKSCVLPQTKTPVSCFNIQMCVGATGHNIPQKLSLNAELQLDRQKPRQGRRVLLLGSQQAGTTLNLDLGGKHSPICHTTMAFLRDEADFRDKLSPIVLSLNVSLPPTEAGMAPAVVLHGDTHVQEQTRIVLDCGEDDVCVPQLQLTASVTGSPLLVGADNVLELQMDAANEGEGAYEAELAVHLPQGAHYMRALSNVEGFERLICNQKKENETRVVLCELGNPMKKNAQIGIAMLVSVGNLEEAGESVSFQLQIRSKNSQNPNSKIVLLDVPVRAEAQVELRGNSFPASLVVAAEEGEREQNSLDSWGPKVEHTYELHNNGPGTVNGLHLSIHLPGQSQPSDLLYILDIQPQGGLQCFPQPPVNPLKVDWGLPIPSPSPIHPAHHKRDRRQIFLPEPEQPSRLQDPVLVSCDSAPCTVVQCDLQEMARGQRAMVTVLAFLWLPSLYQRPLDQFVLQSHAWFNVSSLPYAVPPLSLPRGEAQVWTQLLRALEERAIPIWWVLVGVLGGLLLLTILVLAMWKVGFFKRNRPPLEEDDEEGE
Sequence of ADP-induced human platelet aggregation (P05106 27-788): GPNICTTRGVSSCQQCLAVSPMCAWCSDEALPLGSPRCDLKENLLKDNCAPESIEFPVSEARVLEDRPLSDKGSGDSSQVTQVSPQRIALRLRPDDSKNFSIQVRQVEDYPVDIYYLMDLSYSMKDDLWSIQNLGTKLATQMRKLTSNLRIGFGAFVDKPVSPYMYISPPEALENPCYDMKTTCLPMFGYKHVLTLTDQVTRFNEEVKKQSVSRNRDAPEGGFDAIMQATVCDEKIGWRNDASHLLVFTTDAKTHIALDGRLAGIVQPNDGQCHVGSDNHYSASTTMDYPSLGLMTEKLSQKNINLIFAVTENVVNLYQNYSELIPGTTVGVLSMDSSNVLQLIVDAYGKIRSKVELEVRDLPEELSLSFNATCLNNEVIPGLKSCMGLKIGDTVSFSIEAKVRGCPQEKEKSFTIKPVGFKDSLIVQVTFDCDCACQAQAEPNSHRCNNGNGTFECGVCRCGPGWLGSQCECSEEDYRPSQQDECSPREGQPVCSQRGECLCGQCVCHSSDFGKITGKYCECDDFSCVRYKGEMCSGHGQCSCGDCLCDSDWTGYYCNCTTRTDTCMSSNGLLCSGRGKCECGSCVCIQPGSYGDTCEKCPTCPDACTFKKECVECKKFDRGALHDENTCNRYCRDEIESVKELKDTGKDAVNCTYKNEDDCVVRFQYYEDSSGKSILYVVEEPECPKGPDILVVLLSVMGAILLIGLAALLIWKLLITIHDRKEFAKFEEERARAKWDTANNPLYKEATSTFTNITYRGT

With `CC1(C)SSCCC(=O)N[C@@H](CCCCN)C(=O)NCC(=O)N[C@@H](CC(=O)O)C(=O)N[C@@H]1C(N)=O` [Analog #9, Mpr-K-G-D-Pen-NH2] ([Mpa]KGD[Pen]-NH2; disulfide 1-5), the IC50 worked out at 25 µM. For `CC(=O)N[C@H]1CSSC(C)(C)[C@@H](C(N)=O)NC(=O)[C@H](CC(=O)O)NC(=O)CNC(=O)[C@H](CCCNC(=N)N)NC1=O` [Analog #11, Acetyl-C-R-G-D-Pen-NH2] (Ac-CRGD[Pen]-NH2; disulfide 1-5) the value was 5 µM; for `NCCC[C@@H]1NC(=O)[C@@H](N)CSSC[C@@H](C(N)=O)NC(=O)[C@@H]2CCCN2C(=O)[C@H](Cc2c[nH]c3ccccc23)NC(=O)[C@H](CC(=O)O)NC(=O)CNC1=O` [Analog #36, C-Orn-G-D-W-P-C-NH2] (H-C[Orn]GDWPC-NH2; disulfide 1-7), 150 to 200 µM; for `C[C@H]1NC(=O)[C@H](CCCCN)NC(=O)[C@@H](N)CSSC[C@@H](C(N)=O)NC(=O)[C@@H]2CCCN2C(=O)[C@H](Cc2c[nH]c3ccccc23)NC(=O)[C@H](CC(=O)O)NC1=O` [Analog #38, C-K-A.dagger.-D-W-P-C-NH2] (H-CK[dA]DWPC-NH2; disulfide 1-7), above 200 µM.

As for `CN1CC(=O)N[C@H](C(N)=O)CSSC[C@H](N)C(=O)N[C@@H](CCCCN)C(=O)NCC(=O)N[C@@H](CC(=O)O)C(=O)N[C@@H](Cc2c[nH]c3ccccc23)C1=O` [Analog #39, C-K-G-D-W-(Sar)-C-NH2] (H-CKGDW[Sar]C-NH2; disulfide 1-7), the IC50 was found to be 5 µM.

Regarding `NC(=O)[C@@H]1CSSC[C@H](N)C(=O)N[C@@H](CCCCNC=O)C(=O)NCC(=O)N[C@@H](CC(=O)O)C(=O)N[C@@H](Cc2c[nH]c3ccccc23)C(=O)N2CCC[C@H]2C(=O)N1` [Analog #40, C-K(Formyl)-G-D-W-P-C-NH2] (H-CK(For)GDWPC-NH2; disulfide 1-7), the IC50 was above 200 µM. As for `CN1CC(=O)N[C@@H](CC(=O)O)C(=O)N[C@@H](Cc2c[nH]c3ccccc23)C(=O)N2CCC[C@H]2C(=O)N[C@H](C(N)=O)CSSC[C@H](N)C(=O)N[C@@H](CCCCN)C1=O` [Analog #43, C-K-(Sar)-D-W-P-C-NH2] (H-CK[Sar]DWPC-NH2; disulfide 1-7), the IC50 is 50 µM. For `NCCCC[C@@H]1NC(=O)[C@@H](N)CSSC[C@@H](C(N)=O)NC(=O)[C@@H]2CCCN2C(=O)[C@H](Cc2ccc([N+](=O)[O-])cc2)NC(=O)[C@H](CC(=O)O)NC(=O)CNC1=O` [Analog #44, C-K-G-D-(4-NO2 -Phe)-P-C-NH2] (H-CKGD[Phe(4-NO2)]PC-NH2; disulfide 1-7) the value was 75 µM. As for `CN1C(=O)[C@H](CC(=O)O)NC(=O)CNC(=O)[C@H](CCCCN)NC(=O)[C@@H](N)CSSC[C@@H](C(N)=O)NC(=O)[C@@H]2CCCN2C(=O)[C@@H]1Cc1ccccc1` [Analog #45, C-K-G-D-(NMePhe)-P-C-NH2] (H-CKGD[NMeF]PC-NH2; disulfide 1-7), the figure is above 200 µM; as for `CC1(C)SSCCC(=O)N[C@@H](CCCCN)C(=O)NCC(=O)N[C@@H](CC(=O)O)C(=O)N[C@H](Cc2c[nH]c3ccccc23)C(=O)N2CCC[C@H]2C(=O)N[C@@H]1C(N)=O` [Analog #50, Mpr-K-G-D-W.dagger.-P-Pen-NH2] ([Mpa]KGD[dW]P[Pen]-NH2; disulfide 1-7), above 200 µM. Take `CC1(C)SSCCC(=O)N[C@@H](CCCCN)C(=O)NCC(=O)N[C@@H](CC(=O)O)C(=O)N[C@@H](Cc2c[nH]c3ccccc23)C(=O)N2CCC[C@H]2C(=O)N[C@@H]1C(N)=O` [Analog #51, Mpr-K-G-D-W-P-Pen-NH2] ([Mpa]KGDWP[Pen]-NH2; disulfide 1-7): the half-maximal inhibitory concentration (IC50) amounted to 0.75 µM. As for `CC1(C)SSCCC(=O)N[C@@H](CCCCN)C(=O)NCC(=O)N[C@@H](CC(=O)O)C(=O)N[C@@H](Cc2c[nH]c3ccccc23)C(=O)N2CCC[C@H]2C(=O)N[C@H]1C(N)=O` [Analog #52, Mpr-K-G-D-W-P-Pen.dagger.-NH2] ([Mpa]KGDWP[dPen]-NH2; disulfide 1-7), the 50% inhibitory concentration (IC50) worked out at 5 µM. For `CC1(C)SSCCC(=O)N[C@@H](CCCCN)C(=O)NCC(=O)N[C@@H](CC(=O)O)C(=O)N[C@@H](Cc2c[nH]c3ccccc23)C(=O)N2CCC[C@@H]2C(=O)N[C@@H]1C(N)=O` [Analog #53, Mpr-K-G-D-W-P.dagger.-Pen-NH2] ([Mpa]KGDW[dP][Pen]-NH2; disulfide 1-7) the value was above 200 µM. For `CC1(C)SSCCC(=O)N[C@@H](CCCCN)C(=O)NCC(=O)N[C@H](CC(=O)O)C(=O)N[C@@H](Cc2c[nH]c3ccccc23)C(=O)N2CCC[C@H]2C(=O)N[C@@H]1C(N)=O` [Analog #54, Mpr-K-G-D.dagger.-W-P-Pen-NH2] ([Mpa]KG[dD]WP[Pen]-NH2; disulfide 1-7) the value was above 100 µM; for `NCCCC[C@@H]1NC(=O)CCSSC[C@@H](C(N)=O)NC(=O)[C@@H]2CSCN2C(=O)[C@H](Cc2c[nH]c3ccccc23)NC(=O)[C@H](CC(=O)O)NC(=O)CNC1=O` [Analog #55, Mpr-K-G-D-W-(Thz)-C-NH2] ([Mpa]KGDW[Thz]C-NH2; disulfide 1-7), 2 µM. As for `CC1(C)SSCCC(=O)N[C@@H](CCCCN)C(=O)NCC(=O)N[C@@H](CC(=O)O)C(=O)N[C@@H](Cc2c[nH]c3ccccc23)C(=O)N2CCCC[C@H]2C(=O)N[C@@H]1C(N)=O` [Analog #59, Mpr-K-G-D-W-(Pip)-Pen-NH2] ([Mpa]KGDW[Pip][Pen]-NH2; disulfide 1-7), the figure is 1 µM. For `NCCCC[C@@H]1NC(=O)CCSSC[C@H](C(N)=O)NC(=O)[C@@H]2CCCN2C(=O)[C@H](Cc2c[nH]c3ccccc23)NC(=O)[C@H](CC(=O)O)NC(=O)CNC1=O` [Analog #61, Mpr-K-G-D-W-P-C.dagger.-NH2] ([Mpa]KGDWP[dC]-NH2; disulfide 1-7), the IC50 came to 15 µM.

For `CC1(C)SSCCC(=O)N[C@H](CCCCN)C(=O)NCC(=O)N[C@@H](CC(=O)O)C(=O)N[C@@H](Cc2c[nH]c3ccccc23)C(=O)N2CCC[C@H]2C(=O)N[C@@H]1C(N)=O` [Analog #62, Mpr-K.dagger.-G-D-W-P-Pen-NH2] ([Mpa][dK]GDWP[Pen]-NH2; disulfide 1-7), the IC50 amounted to 2.5 µM.

`CC1(C)SSCCC(=O)N[C@@H](CCCCNC(=N)N)C(=O)NCC(=O)N[C@@H](CC(=O)O)C(=O)N[C@@H](Cc2c[nH]c3ccccc23)C(=O)N2CCC[C@H]2C(=O)N[C@@H]1C(N)=O` [Analog #63, Mpr-(Har)-G-D-W-P-Pen-NH2] ([Mpa][hArg]GDWP[Pen]-NH2; disulfide 1-7): the IC50 came to 0.1 µM. Take `CC(=N)NCCCC[C@@H]1NC(=O)CCSSC[C@@H](C(N)=O)NC(=O)[C@@H]2CCCN2C(=O)[C@H](Cc2c[nH]c3ccccc23)NC(=O)[C@H](CC(=O)O)NC(=O)CNC1=O` [Analog #64, Mpr-(Acetimidyl-Lys)-G-D-W-P-C-NH2] ([Mpa][X2]GDWPC-NH2; disulfide 1-7): the IC50 came out at 0.25 µM. `CC(=N)NCCCC[C@@H]1NC(=O)CCSSC(C)(C)[C@@H](C(N)=O)NC(=O)[C@@H]2CCCN2C(=O)[C@H](Cc2c[nH]c3ccccc23)NC(=O)[C@H](CC(=O)O)NC(=O)CNC1=O` [Analog #69, Mpr-(Acetimidyl-Lys)-G-D-W-P-Pen-NH2] ([Mpa][X2]GDWP[Pen]-NH2; disulfide 1-7): the half-inhibitory concentration (IC50) was determined as 0.5 µM. As for `N=C(NCCCC[C@@H]1NC(=O)CCSSC[C@@H](C(N)=O)NC(=O)[C@@H]2CCCN2C(=O)[C@H](Cc2c[nH]c3ccccc23)NC(=O)[C@H](CC(=O)O)NC(=O)CNC1=O)c1ccccc1` [Analog #70, Mpr-(Phenylimidyl-Lys)-G-D-W-P-C-NH2] ([Mpa][X1]GDWPC-NH2; disulfide 1-7), the figure is 0.5 µM.
